Test results as given in article PMC5527305, “Prevention of Ophthalmia Neonatorum Caused by Neisseria gonorrhoeae Using a Fatty Acid-Based Formulation” (mBio, 2017).
Values after ≈ are worked out from the molar mass of the structure shown.

Legend:
[1] = test system: N. gonorrhoeae strain NCCP11945; test: Growth inhibition screen on GC solid media containing 1 mM candidate; type: cell-based, Neisseria gonorrhoeae; settings: 1 mM candidate in GC agar media; Yes = strain NCCP11945 did not grow
Description: (§1) To find potential candidates, 37 organic acids, esters, and salts were tested in a two-tiered screening process. These candidates were chosen based on the carbon chain lengths of the fatty acids, the presence or absence of saturation, and modifications to represent a diverse selection of organic acid candidates. The first screen aimed to determine the ability of each compound to inhibit the growth of N. gonorrhoeae strain NCCP11945 at 1 mM in GC solid media (Table 1). This strain was chosen due to its relatively recent isolation, its antibiotic resistance profile, and the availability of a complete genome sequence. Those candidates able to inhibit the growth of N. gonorrhoeae strain NCCP11945 were investigated in a second assay. The second assay tested the ability of each compound to cause at least a 4-log reduction in viable bacteria at 1 mM with a 2-min exposure time (Table 1).
(§2) The well-characterized N. gonorrhoeae NCCP11945 strain ([36]) was used in the screening stage. Eight isolates obtained from Public Health England, representing circulating isolates from various European locations, were used in the log reduction assays. All isolates were cultured for 24 h prior to testing by plating on GC solid medium (Oxoid Limited, Hampshire, United Kingdom) with Kellogg supplements and incubation at 37°C and 5% CO2 ([37]).

[2] = test system: gonococcal cells (isolate NCCP 11945); test: Log reduction in artificial tear fluid with or without calcium chloride; type: cell-based, Neisseria gonorrhoeae; settings: calcium 1 mM; Fig. 2
Description: The antigonococcal properties of the seven selected fatty acids were tested in artificial tear fluid, which contained calcium chloride. The addition of 1 mM lauric acid, tridecanoic acid, or sodium dodecanoate gave no reduction in bacterial cell number after exposure, in contrast to the results seen when they were tested in culture medium (Fig. 2). […] This was most likely due to the negative effect of calcium on the aqueous solubility of these candidates.
Artificial tear fluid was made as described by Mirejovsky and others ([39]) with or without calcium chloride. […] As with the previous log reductions, 10^7 gonococcal cells (isolate NCCP 11945) were suspended in GC broth. The cell suspension was centrifuged to remove the culture medium, and the bacteria were resuspended in the tear fluid. This was then added to the concentrated organic acid candidates. The cells were then enumerated again after 2 min of exposure to estimate any reduction in cell number due to the exposure to the organic acid.

[3] = test system: N. gonorrhoeae on human corneal epithelial cells; test: LIVE/DEAD staining of gonococcus-infected human corneal epithelial cells; type: cell-based, Neisseria gonorrhoeae; settings: 1 mM
Description: The LIVE/DEAD BacLight bacterial viability kit for microscopy (Life Technologies, Inc.) was used according to manufacturer’s instructions. After the course of infection, the culture wells were washed five times with sterile 0.85% NaCl to remove nonadhered bacterial cells. Stain was added to each well for 15 min at room temperature before washing in 0.85% saline solution was performed. Glass coverslips were mounted in BacLight mounting oil and visualized on a Nikon Eclipse i80 fluorescence microscope (Nikon United Kingdom) as detailed above.

[4] = test system: N. gonorrhoeae strain NCCP11945; test: Log reduction assay in GC broth, 2-min exposure; type: cell-based, Neisseria gonorrhoeae
Description: as §1
(§3) Log reductions were done as described by Bergsson and coworkers ([18]). Briefly, cells were suspended in GC broth (18 g/liter GC base [Oxoid, Limited] with added defined supplements) to an optical density at 520 nm of 0.3, which is approximately equivalent to 10^7 to 10^8 cells per ml ([38]). […] The contents of the tubes were then mixed at room temperature for 2 min and immediately diluted in a 10-fold dilution series to 10^−4. The dilutions were plated by spreading 10 µl on a quarter of a plate; a 100-µl neat solution was also plated. Plates were then incubated at 37°C for 48 h, with all samples plated in duplicate. […] Additional testing at lower concentrations was also done on the eight clinical isolates of European origin.

[5] = test system: N. gonorrhoeae strain NCCP11945 in coculture with human corneal epithelial cells; test: Cell culture infection model, log reduction of N. gonorrhoeae on corneal epithelial cells; type: cell-based, Neisseria gonorrhoeae; settings: for Killing of N. gonorrhoeae in coculture with corneal cells: 1 mM, added at time of infection or 90 min later, 3 h
Description: Because of its potency, resistance to precipitation in the presence of calcium, and nonirritant nature, monocaprin was chosen from the seven candidates to test in a cell culture model with a 2-fold dilution series from 1 mM to 0.125 mM. Bacteria were also challenged with this compound at two different time points, i.e., at the time of the inoculation and 90 min later. […] There was a slight difference in the level of efficacy when monocaprin was used at sub-MBC levels and added 90 min after bacterial inoculation in comparison to addition immediately after inoculation of the bacteria (Fig. 6). This was possibly due to monocaprin hindering attachment of the bacterial cells to the corneal cells when it was added at the time of infection.
Primary cornea epithelial cells (Life Technologies, Inc.) were grown in keratinocyte serum-free medium (Life Technologies, Inc.) at 37°C with 5% CO2 until 80% confluence was reached. Cells were treated with trypsin, washed, added to 24-well plates, and incubated for a further 24 h. The medium was replaced and approximately 10^7 CFU/ml P^+ and Opa^+ N. gonorrhoeae strain NCCP11945 added to reach a host-to-pathogen ratio (multiplicity of infection) of 1:10. Monocaprin (1 mM, 0.5 mM, 0.25 mM, or 0.125 mM) was added either at 0 min or at 90 min after seeding with N. gonorrhoeae. Controls included noninfected, noninfected treated (with 1 mM monocaprin), infection, and gentamicin controls. After 3 h, the cells were washed, treated with 1% saponin, and incubated for 10 min at 37°C. GC broth was added to each well, and log reductions were calculated as detailed above. Comparisons of the log reductions at different drug administration times at given concentrations were performed using an unpaired t test and GraphPad Prism (version 6.01).

[6] = test system: nine gonococcal isolates (strain NCCP11945 and eight isolates from Public Health England); test: Minimum bactericidal concentration by log reduction against nine gonococcal isolates; type: cell-based, Neisseria gonorrhoeae
Excerpt: The seven candidates were further tested against nine gonococcal isolates, including strain NCCP11945 and eight isolates from Public Health England, to find their minimal bactericidal concentration (MBC). This was defined as the lowest concentration tested to give an average 4-log10 reduction in bacterial count after a 2-min exposure. […] Any candidate that killed all gonococcal cells in the cell suspension was given a log reduction score of six.
as §2, §3

C. trachomatis = test system: C. trachomatis; design: method as in PMID 9736551; settings: cited from earlier work
N. gonorrhoeae = test system: N. gonorrhoeae; design: method as in PMID 10543766; settings: cited from earlier work

In the case of `CCCCCCCCCC(=O)OCC(O)CO` (centres unmarked) [Monocaprin], the Growth inhibition [1] is reported as “Yes”, the “Effect of calcium in artificial tear fluid on antimicrobial effect” value [2] is reported as “unaffected” and the “LIVE/DEAD staining of bacteria on infected corneal cells” value [3] is reported as “only dead bacterial cells”. For the same molecule, the “Viable bacteria recovered from treated wells” value [3] was “No viable bacteria were recovered”, the “Log reduction at 1 mM: at least a 4-log reduction in viable bacteria (Yes/No)” value [4] was “Yes” and the “Log reduction at 1 mM (calculated log reduction in viable bacteria)” value ([4]; maximum score 6 = all cells killed) was > 6 log10. For the same molecule, the “Efficacy (log reduction) in cell culture model” value ([5]; 0.125 mM, both time points) was “completely ineffective”, the “Killing of N. gonorrhoeae in coculture with corneal cells” value [5] was “killed all N. gonorrhoeae bacteria” and the “Killing of N. gonorrhoeae in coculture with corneal cells” value ([5]; listed as monocaprin) was “complete killing”. For the same molecule, the “Bacterial log reduction, comparison of addition times” value ([5]; 0.25 and 0.5 mM, 0 min vs 90 min) was “more effective at 0 min”, the “Killing of all gonococcal cells for all isolates” value ([6]; 1 mM, 2 min) was “killed all gonococcal cells for all isolates” and the MBC ([6]; lowest concentration giving mean log reduction above 4 from a 2-min exposure) was 500 µM (≈ 123 µg/mL). The “Activity against C. trachomatis” value (C. trachomatis) was “bactericidal” and the Antigonococcal properties (N. gonorrhoeae) was “strong antigonococcal properties”.
